Measurements published in patent US10159672B2 (PARION SCIENCES, INC., priority 2011, dated 2018).

Assays:
[1] = Solubility and accelerated stability in citrate buffer; type: physicochemical; details: pH 4.2 citrate buffer with 2.8% NaCl
Procedure: • 1. 200 μL of 70% ACN (70% ACN, 30% H2O) was added into sample tubes which have threads in them. • 2. Tubes from Step 1 were vortexed for 30 seconds and sonicated for 1 minute to fully immerse the threads. • 3. The sample solutions were incubated for 4 hours at room temperature. • 4. Samples were vortexed again for 30 seconds. • 5. 75 μL, of the each sample solution (from step 4) was removed into 96-well UPLC plate with an additional 75 μL of mobile phase A (5 mM ammonium formate, 0.1% formic acid in H2O) added into each sample well. • 6. Analytical standards (10 mM, 1 mM, 100 µM, 10 µM, 1 µM, 100 nM, Buffer) were prepared identically to the thread solutions. • 7. Drug concentrations from all samples were analyzed by UPLC. Solubility and Stability Testing for Compound 15 (Formula I, aka I, aka P-1046, aka 1046): Procedure for Solubility and Stability Evaluation: • 1. Prepare 2.8% NaCl and 25 mM citrate buffer, pH of the solution 4.2. The osmolality of the solution is approximately 940 mOsM. • 2. Add appropriate amount of buffer solution to a test compound to make approximate concentration of 10 mg/mL. • 3. Vortex the solution for 15 seconds, sonicate for 30 seconds, again vortex for 60 seconds and visually observe the solution. • 4. Calculate final concentration of the solution by a spectrophotometer. • Remove a portion of solution and dilute it to 1:10 ratio. […]

Human plasma stability = type: in vitro ADME; details: over 4 hours

With CN(C)C(=O)[C@H](CCCCNC(=N)N)NC(=O)[C@H](CCc1ccc(CCCCNC(=N)NC(=O)c2nc(Cl)c(N)nc2N)cc1)N(C)C [Compound I, 3,5-diamino-6-chloro-N-(N-(4-(4-((S)-3-(dimethylamino)-4-((S)-1-(dimethylamino)-6-guanidino-1-oxohexan-2-ylamino)-4-oxobutyl)phenyl)butyl)carbamimidoyl)pyrazine-2-carboxamide] the “Stability (HPLC), degradation” value ([1]; 10 days at 50° C.) was “No degradation”, the solubility ([1]; aqueous buffer, thermodynamic from solid, highest concentration tested) was ≥ 8800 µg/mL and the “Human Plasma Stability” value (Human plasma stability) was “No metabolism detected”.
